Test results from patent publication US5462935A, “Cephalosporin compounds” (Lucky Limited, priority 1990, dated 1995).
≈ marks a conversion by molar mass, not a printed value. Where two headings read alike, the source gives them in different places.

Experiments:
[1] = acute toxicity test, intravenous; conditions: mouse, in vivo, ICR mice, observed for 14 days
Source text: The results are shown in the last row of Table 2.

[2] = tested on: Serratia marcescens ATCC 27117; test: minimal inhibitory concentration, two-fold agar dilution; assay type: cell-based; conditions: ATCC27117, Muller-Hinton agar, 37° C., 20 hours
Experimental: (§1) These NIC values were taken by employing a two-fold dilution method: that is, two-fold serial dilutions of each of the test compounds were made and dispersed in a Muller-Hinton agar medium; 2 μl of the standard test strain which had the 10^7 CFU (Colony Forming Unit) per ml was inoculated on the medium; and these were incubated at 37° C. for 20 hours.

[3] = tested on: Micrococcus luteus ATCC 9341; test: as above; assay type: cell-based; conditions: ATCC9341, Muller-Hinton agar, 37° C., 20 hours
Experimental: as §1

[4] = tested on: Proteus mirabilis ATCC 25933; test: as above; assay type: cell-based; conditions: ATCC25933, Muller-Hinton agar, 37° C., 20 hours
Experimental: as §1

[5] = tested on: Pseudomonas aerugionsa ATCC 27853; test: as above; assay type: cell-based; conditions: ATCC27853, Muller-Hinton agar, 37° C., 20 hours
Experimental: as §1

[6] = tested on: Pseudomonas aerugionsa ATCC 10145; test: as above; assay type: cell-based; conditions: ATCC10145, Muller-Hinton agar, 37° C., 20 hours
Experimental: as §1

[7] = tested on: Escherichia coli ATCC 25922; test: as above; assay type: cell-based; conditions: ATCC25922, Muller-Hinton agar, 37° C., 20 hours
Experimental: as §1

[8] = tested on: Proteus vulgaris ATCC 6059; test: as above; assay type: cell-based; conditions: ATCC6059, Muller-Hinton agar, 37° C., 20 hours
Experimental: as §1

[9] = tested on: Citrobacter freundii ATCC 8090; test: as above; assay type: cell-based; conditions: ATCC8090, Muller-Hinton agar, 37° C., 20 hours
Experimental: as §1

[10] = tested on: Shigella sonnei ATCC 11060; test: as above; assay type: cell-based; conditions: ATCC11060, Muller-Hinton agar, 37° C., 20 hours
Experimental: as §1

[11] = tested on: Streptococcus faecalis ATCC 29212; test: as above; assay type: cell-based; conditions: Enterococcus faecalis, ATCC29212, Muller-Hinton agar, 37° C., 20 hours
Experimental: as §1

[12] = tested on: Pseudomonas aeruginosa ATCC 25619; test: as above; assay type: cell-based; conditions: ATCC25619, Muller-Hinton agar, 37° C., 20 hours
Experimental: as §1

[13] = tested on: Shigella flexneri ATCC 11836; test: as above; assay type: cell-based; conditions: ATCC11836, Muller-Hinton agar, 37° C., 20 hours
Experimental: as §1

[14] = tested on: Staphylococcus epidermidis ATCC 10537; test: as above; assay type: cell-based; conditions: ATCC10537, Muller-Hinton agar, 37° C., 20 hours
Experimental: as §1

[15] = tested on: Providencia rettgeri ATCC 9250; test: as above; assay type: cell-based; conditions: ATCC9250, Muller-Hinton agar, 37° C., 20 hours
Experimental: as §1

[16] = tested on: Acinetobacter calcoaceticus ATCC 15473; test: as above; assay type: cell-based; conditions: ATCC15473, Muller-Hinton agar, 37° C., 20 hours
Experimental: as §1

[17] = tested on: Enterobacter aerogenes ATCC 29751; test: as above; assay type: cell-based; conditions: Klebsiella aerogenes
Experimental: as §1

[18] = tested on: Bacillus megaterium ATCC 9885; test: as above; assay type: cell-based; conditions: Priestia megaterium
Experimental: as §1

ATCC 12228 = test: as above; assay type: cell-based; conditions: Staphylococcus faecalis, ATCC12228, 20 h
Experimental: as §1

[19] = tested on: Klebsiella pneumoniae ATCC 10031; test: as above; assay type: cell-based; conditions: ATCC10031, Muller-Hinton agar, 37° C., 20 hours
Experimental: as §1

[20] = tested on: Salmonella typhimurium ATCC 14028; test: as above; assay type: cell-based; conditions: Salmonella enterica, Muller-Hinton agar, 37° C., 20 hours
Experimental: as §1

[21] = tested on: Bacillus cereus ATCC 11778; test: as above; assay type: cell-based
Experimental: as §1

[22] = tested on: Escherichia coli ATCC 10536; test: as above; assay type: cell-based; conditions: ATCC10536, Muller-Hinton agar, 37° C., 20 hours
Experimental: as §1

[23] = tested on: Enterobacter cloacae ATCC 27508; test: as above; assay type: cell-based; conditions: ATCC27508, Muller-Hinton agar, 37° C., 20 hours
Experimental: as §1

[24] = tested on: Staphylococcus aureus ATCC 6638p; test: as above; assay type: cell-based; conditions: ATCC6638P, 20 h
Experimental: as §1

[25] = tested on: Morganella morganii ATCC 8076h; test: as above; assay type: cell-based; conditions: ATCC8076H, 20 h
Experimental: as §1

[26] = Bacillus cereus, ATCC11778, 20 h

Cc1c(N)nc(SCC2=C(C(=O)[O-])N3C(=O)C(NC(=O)/C(=N\O[C@@H](C)C(=O)O)c4csc(N)n4)[C@H]3SC2)[n+](N)c1N (stereo partly drawn) [I-S-7, 7-[(Z)-2-(2-aminothiazol-4-yl)-2-[(S)-1-carboxyeth-1-oxyimino]acetamido]-3-[(5-methyl-1,4,6-triaminopyrimidinium-2-yl)thiomethyl]-3-cephem-4-carboxylate]
LD50 at 336 h [1]: > 5000 mg/kg
MIC [2]: 0.063 µg/mL (≈ 0.101 µM)
MIC [3]: 0.25 µg/mL (≈ 0.4 µM)
MIC [4]: 0.016 µg/mL (≈ 0.0256 µM)
MIC [5]: 0.5 µg/mL (≈ 0.8 µM)
MIC [6]: 1 µg/mL (≈ 1.6 µM)
MIC [7]: 0.016 µg/mL (≈ 0.0256 µM)
MIC [8]: 0.016 µg/mL (≈ 0.0256 µM)
MIC [9]: 0.016 µg/mL (≈ 0.0256 µM)
MIC [10]: 0.031 µg/mL (≈ 0.0496 µM)
MIC [11]: > 128 µg/mL
MIC [12]: 0.5 µg/mL (≈ 0.8 µM)
MIC [13]: 0.016 µg/mL (≈ 0.0256 µM)
MIC [14]: 2 µg/mL (≈ 3.2 µM)
MIC [15]: ≤ 0.008 µg/mL
MIC [16]: 2 µg/mL (≈ 3.2 µM)
MIC ([17]; ATCC29751, Enterobacter aerogenes ATCC 29751, Muller-Hinton agar, 37° C., 20 hours, read-out: MIC): 0.15 µg/mL (≈ 0.24 µM)
MIC ([18]; ATCC9885, Bacillus megaterium ATCC 9885, Muller-Hinton agar, 37° C., 20 hours, read-out: MIC): 26 µg/mL (≈ 41.6 µM)
MIC (ATCC 12228): 1 µg/mL (≈ 1.6 µM)
MIC [19]: 0.016 µg/mL (≈ 0.0256 µM)
MIC [20]: 0.063 µg/mL (≈ 0.101 µM)
MIC ([21]; ATCC11778, Bacillus cereus ATCC 11778, Muller-Hinton agar, 37° C., 20 hours, read-out: MIC): 84 µg/mL (≈ 134 µM)
MIC [22]: 0.031 µg/mL (≈ 0.0496 µM)
MIC [23]: ≤ 0.008 µg/mL
MIC [24]: 4 µg/mL (≈ 6.4 µM)

C[C@H](O/N=C(\C(=O)NC1C(=O)N2C(C(=O)[O-])=C(CSc3nc(N)cc(N)[n+]3C)CS[C@H]12)c1csc(N)n1)C(=O)O (stereo partly drawn) [I-S-2, 7-[(Z)-2-(2-aminothiazol-4-yl)-2-[(S)-1-carboxyeth-1-oxyimino]acetamido]-3-[(4,6-diamino-1-methylpyrimidinium-2-yl)thiomethyl]-3-cephem-4-carboxylate]
LD50 at 336 h [1]: > 3000 mg/kg
MIC [2]: 0.031 µg/mL (≈ 0.0508 µM)
MIC [3]: 0.13 µg/mL (≈ 0.213 µM)
MIC [4]: 0.016 µg/mL (≈ 0.0262 µM)
MIC [5]: 0.5 µg/mL (≈ 0.82 µM)
MIC [6]: 1 µg/mL (≈ 1.64 µM)
MIC [7]: 0.016 µg/mL (≈ 0.0262 µM)
MIC [8]: 0.016 µg/mL (≈ 0.0262 µM)
MIC [9]: 0.016 µg/mL (≈ 0.0262 µM)
MIC [10]: 0.031 µg/mL (≈ 0.0508 µM)
MIC [11]: > 128 µg/mL
MIC [12]: 1 µg/mL (≈ 1.64 µM)
MIC [13]: ≤ 0.008 µg/mL
MIC [14]: 1 µg/mL (≈ 1.64 µM)
MIC [15]: ≤ 0.008 µg/mL
MIC [16]: 2 µg/mL (≈ 3.28 µM)
MIC ([17]; ATCC29751, 20 h): 0.5 µg/mL (≈ 0.82 µM)
MIC ([18]; ATCC9885, 20 h): 0.25 µg/mL (≈ 0.41 µM)
MIC (ATCC 12228): 1 µg/mL (≈ 1.64 µM)
MIC [19]: 0.016 µg/mL (≈ 0.0262 µM)
MIC [20]: 0.13 µg/mL (≈ 0.213 µM)
MIC [21, 26]: 32 µg/mL (≈ 52.5 µM)
MIC [22]: 0.031 µg/mL (≈ 0.0508 µM)
MIC [23]: ≤ 0.008 µg/mL
MIC [24]: 2 µg/mL (≈ 3.28 µM)

Cc1c(N)nc(SCC2=C(C(=O)[O-])N3C(=O)C(NC(=O)/C(=N\O[C@H](C)C(=O)O)c4csc(N)n4)[C@H]3SC2)[n+](C)c1N (stereo partly drawn) [I-R-6, 7-[(Z)-2-(2-aminothiazol-4-yl)-2-[(R)-1-carboxyeth-1-oxyimino]acetamido]-3-[(4,6-diamino-1,5-dimethylpyrimidinium-2-yl)thiomethyl]-3-cephem-4-carboxylate]
LD50 at 336 h [1]: > 3000 mg/kg
MIC [2]: 0.13 µg/mL (≈ 0.208 µM)
MIC [3]: 0.5 µg/mL (≈ 0.802 µM)
MIC [4]: 0.031 µg/mL (≈ 0.0497 µM)
MIC [5]: 2 µg/mL (≈ 3.21 µM)
MIC [6]: 2 µg/mL (≈ 3.21 µM)
MIC [7]: 0.13 µg/mL (≈ 0.208 µM)
MIC [8]: 0.063 µg/mL (≈ 0.101 µM)
MIC [25]: ≤ 0.008 µg/mL
MIC [9]: 0.063 µg/mL (≈ 0.101 µM)
MIC [10]: 0.063 µg/mL (≈ 0.101 µM)
MIC [11]: > 128 µg/mL
MIC [12]: 2 µg/mL (≈ 3.21 µM)
MIC [13]: 0.031 µg/mL (≈ 0.0497 µM)
MIC [14]: 2 µg/mL (≈ 3.21 µM)
MIC [15]: ≤ 0.008 µg/mL
MIC [16]: 4 µg/mL (≈ 6.41 µM)
MIC ([17]; ATCC29751, 20 h): 1 µg/mL (≈ 1.6 µM)
MIC (ATCC 12228): 2 µg/mL (≈ 3.21 µM)
MIC [19]: 0.063 µg/mL (≈ 0.101 µM)
MIC [20]: 0.13 µg/mL (≈ 0.208 µM)
MIC [21, 26]: 128 µg/mL (≈ 205 µM)
MIC [22]: 0.063 µg/mL (≈ 0.101 µM)
MIC [23]: 0.016 µg/mL (≈ 0.0257 µM)
MIC [24]: 4 µg/mL (≈ 6.41 µM)
